According to publication PMC10360056, “Chemical Evolution of Amphiphilic Xenopeptides for Potentiated Cas9 Ribonucleoprotein Delivery” (Journal of the American Chemical Society, 2023):

Experiments:
[1] = Dilution stability of Cas9 RNP nanocarriers (DLS); assay type: physicochemical; settings: prepared at 375 nM RNP, diluted with HBG, 0.1 nM RNP
Description: LogD7.4 determination of xenopeptides
Octanol-water partition coefficient D at pH 7.4 (logD7.4) was determined as previously reported with slight modification.5
Scheme S3 illustrates the logD7.4 determination procedures of all xenopeptides in this study. Briefly, 10 μL of 10 mg/mL xenopeptides in water were diluted with 90 μL HEPES buffer (20 mM, pH 7.4) in 1.5 mL reaction tubes. 100 μL n-octanol were then added. The tubes were shaken at 1400 rpm for 24 h. Afterwards, the tubes were centrifuged followed by storage at 4 °C for 1 h to separate n-octanol and water phases. 70 μL of each phase were injected for HPLC analysis. The extinction at 280 nm was monitored and the peak area (A) of the xenopeptides was calculated. LogD7.4 was calculated as log(Aoctanol / Awater).
All experiments were performed in triplicate.
Preparation of Cas9 RNP and Cas9 RNP/ssDNA nanocarriers […]
The hydrodynamic size, PDI and zeta potential of Cas9 RNP nanocarriers were measured by DLS using a Zetasizer Nano ZS (Malvern Instruments, UK). […] The hydrodynamic size of Cas9 RNP nanocarriers containing 1.25 μg Cas9 protein and 0.25 μg sgRNA (Cas9/sgRNA, 1:1 molar ratio) in 100 μL HBG was measured.
Afterwards, 700 μL HEPES buffer (20 mM, pH 7.4) were added to each sample and the soluti on was mixed for the zeta potential measurement. […] The size and zeta potential of diluted samples were measured as described above. […]

HeLa WT cells [2] = experiment: Cellular uptake of Cas9 RNP nanocarriers (flow cytometry); assay type: cell-based; settings: 75 nM RNP, 20 % ATTO488-sgRNA, 4 h, flow cytometry MFI
Description: (§1) sgRNA amount in naked Cas9/sgRNA ribonucleoproteins (Cas9 RNPs) or Cas9 RNP nanocarriers were determined using a Quant-iTTM RiboGreen® RNA assay kit (Invitrogen, CA, USA). 50 μL of naked Cas9 RNPs or Cas9 RNP nanocarriers con-taining 250 ng Cas9 protein and 50 ng sgRNA were mixed with 50 μL of TE buffer and were added to the 96-well plate. The plate was incubated for 10 min. Afterwards, 100 μL of Ribogreen solution (diluted 1:100 in TE buffer) was added to each well.
(§2) The plate was incubated for another 5 min. Ribogreen fluorescence intensity was detected using a microplate reader (Spectra-fluor Plus, Tecan, Männedorf, Switzerland) with excitation and emission wavelength of 485 and 528 nm, respectively. […]
(§3) Cells were harvested and resuspended in 600 μL of FACS buffer (PBS buffer containing 10 % FBS). […] The DAPI signal and BFP fluorescence were detected with 405 nm excitation and 450 nm emission. The eGFP and ATTO488 fluorescence was assayed with 488 nm excitation and 530 nm emission. The ATTO647N fluorescence was assayed with 640 nm excitation and 670 nm emission. Ten thousand of isolated live cells were counted and evaluated. The data were analyzed using FlowJo 7.6.5 by FlowJo, LLC (Becton, Dickinson and Company, USA).
(§4) Cell viability was determined using an MTT assay. […]
(§5) Cellular uptake of Cas9 RNP nanocarriers was evaluated by flow cytometry and confocal laser scanning microscopy (CLSM). […]

HeLa WT cells [3] = experiment: Endocytosis pathway study with inhibitors; assay type: cell-based; settings: 1 mM amiloride 2 h, 75 nM RNP, 4 h, flow cytometry
Description: as §1, §2, §3, §4, §5

- nanocarrier size detectability upon dilution [1]: still detectable
SMILES: CCCCC/C=C\C/C=C\CCCCCCCC(=O)NCCCC[C@H](NC(=O)CCCCCCC/C=C\C/C=C\CCCCC)C(=O)NCCCC[C@H](NC(=O)c1cc2ccccc2cc1C(=O)NCCNCCNCCNCCNC(=O)[C@H](Cc1ccc(O)cc1)NC(=O)[C@H](Cc1ccc(O)cc1)NC(=O)[C@H](Cc1ccc(O)cc1)NC(=O)[C@@H](N)CCCCN=[N+]=[N-])C(=O)NCCNCCNCCNCCNC(=O)c1cc2ccccc2cc1C(=O)N[C@@H](Cc1ccc(O)cc1)C(=O)N[C@@H](Cc1ccc(O)cc1)C(=O)N[C@@H](Cc1ccc(O)cc1)C(=O)O [Ntp1-LinA]
- enhanced sgRNA uptake compared to the Stp-based analogue (HeLa WT cells [2]): 7.3 fold
- Cas9 RNP uptake after pretreatment with amiloride (macropinocytosis) (HeLa WT cells [3]): blocked
